How the values were obtained:
[1] = DVS water uptake of abiraterone decanoate forms; assay type: physicochemical; conditions: Forms A, B, and C
[2] = system: CYP17 hydroxylase/lyase; assay: Steroid hormone analysis (serum) in 13-week study; assay type: in vivo, cynomolgus monkeys; conditions: for Serum 17OH-Progesterone CFB (vs Day −1) / Serum 17OH-Progesterone Mean / Serum Aldosterone CFB (vs Day −1) / Serum Aldosterone Mean / Serum Androstenedione CFB (vs Day −1) / Serum Androstenedione Mean / Serum Corticosterone CFB (vs Day −1) / Serum Corticosterone Mean / Serum Cortisol CFB (vs Day −1) / Serum Cortisol Mean / Serum Dehydroepiandrosterone CFB (vs Day −1) / Serum Dehydroepiandrosterone Mean / Serum Deoxycortisol CFB (vs Day −1) / Serum Deoxycortisol Mean / Serum Dihydrotestosterone CFB (vs Day −1) / Serum Dihydrotestosterone Mean / Serum Progesterone CFB (vs Day −1) / Serum Progesterone Mean / Serum Testosterone CFB (vs Day −1) / Serum Testosterone Mean: intact male monkeys
Method: Sample Collection for Steroid Hormone Analysis (Serum): Blood samples (approximately 2.5 mL) were collected from all animals via the femoral vein for the steroid hormone analysis. The animals were fasted prior to blood collection.

[3] = 20 mg/kg IM every two weeks, Day 15
[4] = 20 mg/kg IM every two weeks, Day 85
[5] = 60 mg/kg IM every two weeks, Day 15
[6] = 60 mg/kg IM every two weeks, Day 85
[7] = 200 mg/kg IM every two weeks, Day 15
[8] = 200 mg/kg IM every two weeks, Day 85
[9] = Day 85, 20 and 60 mg/kg dose groups

CCCCCCCCCC(=O)O[C@H]1CC[C@@]2(C)C(=CC[C@@H]3[C@@H]2CC[C@]2(C)C(c4cccnc4)=CC[C@@H]32)C1 [Abiraterone Decanoate, abiraterone decanoate]
DVS Max H2O uptake [1]: N/A-non-hygroscopic
Serum 17OH-Progesterone CFB (vs Day −1) [2, 3]: 1060%
Serum 17OH-Progesterone Mean [2, 3]: 4289 pg/mL
Serum Aldosterone CFB (vs Day −1) [2, 3]: −68%
Serum Aldosterone Mean [2, 3]: 45 pg/mL
Serum Androstenedione CFB (vs Day −1) [2, 3]: −82%
Serum Androstenedione Mean [2, 3]: 39 pg/mL
Serum Corticosterone CFB (vs Day −1) [2, 3]: 3361%
Serum Corticosterone Mean [2, 3]: 110635 pg/mL
Serum Cortisol CFB (vs Day −1) [2, 3]: −76%
Serum Cortisol Mean [2, 3]: 34897 pg/mL
Serum Dehydroepiandrosterone CFB (vs Day −1) [2, 3]: −73%
Serum Dehydroepiandrosterone Mean [2, 3]: 1500 pg/mL
Serum Deoxycortisol CFB (vs Day −1) [2, 3]: −64%
Serum Deoxycortisol Mean [2, 3]: 241 pg/mL
Serum Dihydrotestosterone CFB (vs Day −1) [2, 3]: −87%
Serum Dihydrotestosterone Mean [2, 3]: 195 pg/mL
Serum Progesterone CFB (vs Day −1) [2, 3]: 51539%
Serum Progesterone Mean [2, 3]: 10328 pg/mL
Serum Testosterone CFB (vs Day −1) [2, 3]: −65%
Serum Testosterone Mean [2, 3]: 2148 pg/mL
Serum Testosterone CFB (vs Day −1) ([2]; 20 mg/kg IM every two weeks, Day 15, listed as AbiDec): −87%
Serum 17OH-Progesterone CFB (vs Day −1) [2, 4]: 1968%
Serum 17OH-Progesterone Mean [2, 4]: 7647 pg/mL
Serum Aldosterone CFB (vs Day −1) [2, 4]: 40%
Serum Aldosterone Mean [2, 4]: 199 pg/mL
Serum Androstenedione CFB (vs Day −1) [2, 4]: −53%
Serum Androstenedione Mean [2, 4]: 106 pg/mL
Serum Corticosterone CFB (vs Day −1) [2, 4]: 2837%
Serum Corticosterone Mean [2, 4]: 93869 pg/mL
Serum Cortisol CFB (vs Day −1) [2, 4]: −58%
Serum Cortisol Mean [2, 4]: 62490 pg/mL
Serum Dehydroepiandrosterone CFB (vs Day −1) [2, 4]: −76%
Serum Dehydroepiandrosterone Mean [2, 4]: 1372 pg/mL
Serum Deoxycortisol CFB (vs Day −1) [2, 4]: −47%
Serum Deoxycortisol Mean [2, 4]: 357 pg/mL
Serum Dihydrotestosterone CFB (vs Day −1) [2, 4]: −61%
Serum Dihydrotestosterone Mean [2, 4]: 578 pg/mL
Serum Progesterone CFB (vs Day −1) [2, 4]: 47710%
Serum Progesterone Mean [2, 4]: 9562 pg/mL
Serum Testosterone CFB (vs Day −1) [2, 4]: 3%
Serum Testosterone Mean [2, 4]: 6286 pg/mL
Serum 17OH-Progesterone CFB (vs Day −1) [2, 5]: 944%
Serum 17OH-Progesterone Mean [2, 5]: 1631 pg/mL
Serum Aldosterone CFB (vs Day −1) [2, 5]: −94%
Serum Aldosterone Mean [2, 5]: 14 pg/mL
Serum Androstenedione CFB (vs Day −1) [2, 5]: −94%
Serum Androstenedione Mean [2, 5]: 20 pg/mL
Serum Corticosterone CFB (vs Day −1) [2, 5]: 5279%
Serum Corticosterone Mean [2, 5]: 163079 pg/mL
Serum Cortisol CFB (vs Day −1) [2, 5]: −87%
Serum Cortisol Mean [2, 5]: 18271 pg/mL
Serum Dehydroepiandrosterone CFB (vs Day −1) [2, 5]: −75%
Serum Dehydroepiandrosterone Mean [2, 5]: 1271 pg/mL
Serum Deoxycortisol CFB (vs Day −1) [2, 5]: −72%
Serum Deoxycortisol Mean [2, 5]: 93 pg/mL
Serum Dihydrotestosterone CFB (vs Day −1) [2, 5]: −95%
Serum Dihydrotestosterone Mean [2, 5]: 64 pg/mL
Serum Progesterone CFB (vs Day −1) [2, 5]: 69193%
Serum Progesterone Mean [2, 5]: 13859 pg/mL
Serum Testosterone CFB (vs Day −1) [2, 5]: −94%
Serum Testosterone Mean [2, 5]: 335 pg/mL
Serum Testosterone CFB (vs Day −1) ([2]; 60 mg/kg IM every two weeks, Day 15, listed as AbiDec): −95%
Serum 17OH-Progesterone CFB (vs Day −1) [2, 6]: 5546%
Serum 17OH-Progesterone Mean [2, 6]: 8821 pg/mL
Serum Aldosterone CFB (vs Day −1) [2, 6]: −18%
Serum Aldosterone Mean [2, 6]: 194 pg/mL
Serum Androstenedione CFB (vs Day −1) [2, 6]: −77%
Serum Androstenedione Mean [2, 6]: 79 pg/mL
Serum Corticosterone CFB (vs Day −1) [2, 6]: 3878%
Serum Corticosterone Mean [2, 6]: 120598 pg/mL
Serum Cortisol CFB (vs Day −1) [2, 6]: −72%
Serum Cortisol Mean [2, 6]: 39689 pg/mL
Serum Dehydroepiandrosterone CFB (vs Day −1) [2, 6]: −76%
Serum Dehydroepiandrosterone Mean [2, 6]: 1200 pg/mL
Serum Deoxycortisol CFB (vs Day −1) [2, 6]: −7%
Serum Deoxycortisol Mean [2, 6]: 315 pg/mL
Serum Dihydrotestosterone CFB (vs Day −1) [2, 6]: −69%
Serum Dihydrotestosterone Mean [2, 6]: 361 pg/mL
Serum Progesterone CFB (vs Day −1) [2, 6]: 67947%
Serum Progesterone Mean [2, 6]: 13609 pg/mL
Serum Testosterone CFB (vs Day −1) [2, 6]: 1%
Serum Testosterone Mean [2, 6]: 5453 pg/mL
Serum 17OH-Progesterone CFB (vs Day −1) [2, 7]: 158%
Serum 17OH-Progesterone Mean [2, 7]: 474 pg/mL
Serum Aldosterone CFB (vs Day −1) [2, 7]: −91%
Serum Aldosterone Mean [2, 7]: 19 pg/mL
Serum Androstenedione CFB (vs Day −1) [2, 7]: −93%
Serum Androstenedione Mean [2, 7]: 20 pg/mL
Serum Corticosterone CFB (vs Day −1) [2, 7]: 4238%
Serum Corticosterone Mean [2, 7]: 138133 pg/mL
Serum Cortisol CFB (vs Day −1) [2, 7]: −93%
Serum Cortisol Mean [2, 7]: 7703 pg/mL
Serum Dehydroepiandrosterone CFB (vs Day −1) [2, 7]: −64%
Serum Dehydroepiandrosterone Mean [2, 7]: 1200 pg/mL
Serum Deoxycortisol CFB (vs Day −1) [2, 7]: −84%
Serum Deoxycortisol Mean [2, 7]: 44 pg/mL
Serum Dihydrotestosterone CFB (vs Day −1) [2, 7]: −96%
Serum Dihydrotestosterone Mean [2, 7]: 67 pg/mL
Serum Progesterone CFB (vs Day −1) [2, 7]: 59894%
Serum Progesterone Mean [2, 7]: 11999 pg/mL
Serum Testosterone CFB (vs Day −1) [2, 7]: −99%
Serum Testosterone Mean [2, 7]: 100 pg/mL
Serum Testosterone CFB (vs Day −1) ([2]; 200 mg/kg IM every two weeks, Day 15, listed as AbiDec): −96%
Serum 17OH-Progesterone CFB (vs Day −1) [2, 8]: 1696%
Serum 17OH-Progesterone Mean [2, 8]: 3296 pg/mL
Serum Aldosterone CFB (vs Day −1) [2, 8]: −82%
Serum Aldosterone Mean [2, 8]: 37 pg/mL
Serum Androstenedione CFB (vs Day −1) [2, 8]: −87%
Serum Androstenedione Mean [2, 8]: 39 pg/mL
Serum Corticosterone CFB (vs Day −1) [2, 8]: 3468%
Serum Corticosterone Mean [2, 8]: 113629 pg/mL
Serum Cortisol CFB (vs Day −1) [2, 8]: −83%
Serum Cortisol Mean [2, 8]: 19682 pg/mL
Serum Dehydroepiandrosterone CFB (vs Day −1) [2, 8]: −64%
Serum Dehydroepiandrosterone Mean [2, 8]: 1200 pg/mL
Serum Deoxycortisol CFB (vs Day −1) [2, 8]: −49%
Serum Deoxycortisol Mean [2, 8]: 141 pg/mL
Serum Dihydrotestosterone CFB (vs Day −1) [2, 8]: −90%
Serum Dihydrotestosterone Mean [2, 8]: 165 pg/mL
Serum Progesterone CFB (vs Day −1) [2, 8]: 75799%
Serum Progesterone Mean [2, 8]: 15180 pg/mL
Serum Testosterone CFB (vs Day −1) [2, 8]: −87%
Serum Testosterone Mean [2, 8]: 1246 pg/mL
Serum Testosterone CFB (vs Day −1) ([2]; 200 mg/kg IM every two weeks, Day 85, listed as AbiDec): −87%
serum testosterone levels reduced ([2]; 200 mg/kg/dose, for at least 85 days): more than 75%
Androstenedione serum concentration below Day −1 [2, 9]: 53-77%
dihydrotestosterone serum concentration below Day −1 [2, 9]: 61-69%
circulating androgen levels ([2]; gonadally intact male monkeys, appeared dose dependent, sustained for testosterone through Day 85 at 200 mg/kg/dose): potent reductions in circulating androgen levels
Serum testosterone concentrations following repeat administration ([2]; two lower dose groups (20, 60 mg/kg) by Day 85): returned to baseline

— patent US11957696B2 (Propella Therapeutics, Inc., priority 2021, dated 2024)
